From US20090105202A1 (priority 2005, published 2009)
Like-named read-outs stand apart in the source and are kept apart here.

Legend:
[1] = system: HCT116 cells; details: read-out: IC50 (the drug concentration producing 50% inhibition of colony formation), drugs 72 hours, colonies counted after 8 days
Protocol: To test the effect of androsterone derivatives of this example, HCT116cells (colorectal carcinoma cells) were plated in 60 mm Petri dishes containing 2.7 ml of medium (modified McCoy's 5a medium containing 10% fetal bovine serum and 100 units/ml penicillin and 100 µg/ml streptomycin). The cells were incubated in a CO2 incubator at 37° C. for 5 hours for attachment to the bottom of Petri dishes. Drugs were made up fresh in medium at ten times the final concentration, and then 0.3 ml of tins stock solution was added to the 2.7 ml of medium containing 5% bovine calf serum (BCS) in the dish. The cells were then incubated with drugs for 72 hours at 37° C. At the end of incubation the drug-containing media were decanted, the dishes were rinsed with 4 ml of Hank's Balance Salt Solution (HBSS). […] The cell colonies stained with methylene blue (0.5% in ethanol) were counted using colony counter after incubation for 8 days for HCT116 cells.

[2] = system: HCT116 cells; format: cell-based; parameters: unit not given here

Row | SMILES | IC50 [1] [nM] | In vitro antitumor activity against HCT116 cells ([2]; 1 μM) | In vitro antitumor activity against HCT116 cells ([2]; 10 μM) | In vitro antitumor activity against HCT116 cells ([2]; 100 nM)
1 | CC[C@@]1(OC(=O)COc2ccc(C(=O)O[C@H]3CC[C@@]4(C)[C@@H](CC[C@@H]5[C@@H]4CC[C@]4(C)C(=O)CC[C@@H]54)C3)cc2)C(=O)OCc2c1cc1n(c2=O)Cc2cc3ccccc3nc2-1 [compound 0103021, Camptothecin-20S-O-(4-carboxyphenoxyacetate) linked with epiandrosterone] | 3.5 | – | – | –
2 | CC[C@@]1(OC(=O)COc2ccc(C(=O)O[C@@H]3CC[C@@]4(C)[C@@H](CC[C@@H]5[C@@H]4CC[C@]4(C)C(=O)CC[C@@H]54)C3)cc2)C(=O)OCc2c1cc1n(c2=O)Cc2cc3ccccc3nc2-1 [compound 010216, Camptothecin-20S-O-(4-carboxyphenexyacetate) linked with androsterone] | 2.5 | – | – | –
3 | CC(ON=C1c2cc([N+](=O)[O-])cc([N+](=O)[O-])c2-c2c1ccc([N+](=O)[O-])c2[N+](=O)[O-])C(=O)O[C@H]1CC[C@@]2(C)[C@@H](CC[C@@H]3[C@@H]2CC[C@]2(C)C(=O)CC[C@@H]32)C1 (stereo partly drawn) [compound 991022, (3β,5α)-3-Hydroxyandrostan-17-one (+)-2-(2,4,5,6-tetranitro-9-flourenylidene-aminooxy)proprionate] | – | 100 | 0 | –
4 | C[C@]12CC[C@H](OC(=O)c3ccc([N+](=O)[O-])o3)C[C@@H]1CC[C@@H]1[C@@H]2CC[C@]2(C)C(=O)CC[C@@H]12 [compound 991027, (3β,5α)-3-Hydroxyandrostan-17-one 5-nitro-2-furoate] | – | 0 | 0 | 4.00
5 | O=c1[nH]cc(F)c(=O)[nH]1 [5-FU, reference compound] | – | – | 17.00 | –
6 | C[C@]12CC[C@H](OC(=O)CCC(=O)OCc3ccc4c(c3)C(=O)c3ccccc3C4=O)C[C@@H]1CC[C@@H]1[C@@H]2CC[C@]2(C)C(=O)CC[C@@H]12 [compound 991120, 1-((3β,5α)-3-Hydroxyandrostan-17-one)-4-(2-(hydroxymethyl)anthraquinone)-succinate] | – | 100 | 0 | –
